Values joined by “and” are separate entries in the source; they are usually repeats but may differ in a detail not shown here. Identical values can stand only once.
Assays:
mice = assay: Cheek injection model: scratching bouts and wiping; format: in vivo, mouse; details: injected into cheek: 1.3 mM deoxycholic acid, 4 mM LPA
Experimental: All applicable behavioral tests were performed and analysed with the experimenter blind to genotype. […] There were no significant differences in itch between male and female mice. […] On the day before the experiment, animals were placed in the test chamber for 30 min before being subjected to a series of three mock injections with 5 min break periods in between. On the day of the experiment, animals were first allowed to acclimatize to the test chamber for 10 min before injection. […] A bout of scratching was defined as a continuous scratching movement with either hindpaw directed at the area of the injection site. In the cheek injection model, a wipe was defined as a single forepaw stroking the site of the injection. Use of both forepaws on the face or cheek was considered as grooming behavior. […] For H1R block, 30 mg/kg of cetirizine HCl (pH 7.4) was given intraperitoneally thirty minutes prior to injection of bilirubin. Licking behavior was quantified in seconds and identified as the licking of the toes or footpad of the hind paw site of injection that was neither preceded nor followed by licking of any other portion of the body.

DRG neurons = assay: Ca2+ imaging of cultured DRG neurons; format: cell-based, mouse
Experimental: All cultured cells were maintained in DMEM supplemented with 10% FBS and 1% Penicillin/Streptomycin at 37°C, 5% CO2. […] Cells were imaged in calcium imaging buffer (CIB; 10 mM HEPES, 1.2 mM NaHCO3, 130 mM NaCl, 3 mM KCl, 2.5 mM CaCl2, 0.6 mM MgCl2, 20 mM glucose, and 20 mM sucrose at pH 7.4 and 290–300 mOsm). To monitor changes in intracellular [Ca^2+] ([Ca^2+]i), cells were loaded with either Fura 2-AM (HEK293 cells) or Fluo 4-AM (DRG neurons and mast cells) for 30 min in the dark at 37°C in CIB just prior to imaging. With Fura 2-AM, emission at 510 nm was monitored from excitation at both 340 nm and 380 nm. With Fluo 4-AM, emission at 520 nm was monitored from excitation at 488 nm. Cells were identified as responding if the intracellular [Ca^2+] rose by either 50% compared to baseline or 50% compared to the [Ca^2+]i change assayed during addition of 50 mM KCl (neurons only). Damaged, detached, high-baseline, and motion-activated cells were excluded from analysis.
DRGs were incubated with Fluo-4 AM 24 hr after dissociation (native genotype) or 48 hr after dissociation (virally transduced). Unless otherwise noted, cells were imaged for 20 seconds to establish a baseline before compounds were added. After 30 s, a 2 min wash was applied before addition of another substances. At the end of every imaging trial, 50 mM KCl was added as a positive control. […] For ruthenium red inhibitor experiments, neurons were incubated with 10 µM ruthenium red for 5 min prior to imaging. Percentage activated was determined as earlier described.
DRG neurons from all spinal levels were collected in cold DH10 media (90% Dulbecco’s modified Eagle’s medium (DMEM)/F-12, 10% FBS, penicillin (100 U/mL), and streptomycin (100 μg/mL)). DRGs were digested with a dispase (5 mg/ml)/collagenase type I (1 mg/ml) enzyme mixture at 37°C for 45 min. After trituration, cells were spun at 300 g and re-suspended in DH10 before being plated on glass coverslips coated with poly-D-lysine (0.5 mg/ml) and laminin (10 μg/ml, Invitrogen). DRGs were cultured with DH10 supplemented with 50 ng/mL NGF at 37°C.

MRGPRC11 [1] = molecular target: T1, MRGPRC11 (Mus musculus, UniProt Q8CIP3); assay: Microscale thermophoresis binding to MRGPRC11; details: mean of n=3, Fig 2-O
T1 construct: expressed in transfected cells
T1 sequence (Q8CIP3 1-322): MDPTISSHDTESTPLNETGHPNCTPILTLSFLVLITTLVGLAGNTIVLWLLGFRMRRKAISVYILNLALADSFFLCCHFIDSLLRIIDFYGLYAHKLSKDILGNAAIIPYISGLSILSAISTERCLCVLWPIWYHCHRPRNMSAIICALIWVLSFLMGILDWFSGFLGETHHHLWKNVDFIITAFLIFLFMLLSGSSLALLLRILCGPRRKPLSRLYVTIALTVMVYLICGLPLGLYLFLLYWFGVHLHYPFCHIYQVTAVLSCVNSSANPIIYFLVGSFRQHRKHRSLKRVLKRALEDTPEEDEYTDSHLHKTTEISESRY
Experimental: Binding isotherms for MRGPRA1, MRGPRX4, and MRGRPC11 towards various ligands were determined by microscale thermophoresis with the NanoTemper monolith NT.115 instrument ([Duhr and Braun, 2006]). Ligands were pre-incubated with 10 µM of the GFP-tagged receptor of interest for 5 min at room temperature in binding buffer (20 mM Tris and 150 mM NaCl at pH 8.8). Receptors were crudely purified as a membrane fraction from cells stably expressing the receptor ([Vasavda et al., 2017]). Haem metabolites were freshly dissolved in 0.1 M NaOH in dim light and then diluted into assay buffer. Lyophilized BAM8-22 was dissolved in binding buffer. The pH of each ligand was evaluated prior to incubation with a receptor. Samples were loaded into NT.115 Hydrophobic-Treated Capillaries from NanoTemper. Microscale thermophoretic experiments were executed using 20% LED power and 15% MST power. KDs were calculated using the law of mass action with data from three independent experiments. Binding between bilirubin and receptors was evaluated purely thermophoretically, whereas binding between BAM8-22 and MRGPRC11 was evaluated by T-Jump. Samples with dramatic deviations in initial fluorescence were excluded.

MRGPRC11 [2] = molecular target: T1, MRGPRC11; assay: Ca2+ imaging and concentration-Ca2+ response in HEK293 cells expressing MRGPRC11; format: cell-based; details: three replicates, Fig 2-N
Experimental: All cultured cells were maintained in DMEM supplemented with 10% FBS and 1% Penicillin/Streptomycin at 37°C, 5% CO2. All data included were generated from cells tested for mycoplasma and found to be negative. Cells were imaged in calcium imaging buffer (CIB; 10 mM HEPES, 1.2 mM NaHCO3, 130 mM NaCl, 3 mM KCl, 2.5 mM CaCl2, 0.6 mM MgCl2, 20 mM glucose, and 20 mM sucrose at pH 7.4 and 290–300 mOsm). To monitor changes in intracellular [Ca^2+] ([Ca^2+]i), cells were loaded with either Fura 2-AM (HEK293 cells) or Fluo 4-AM (DRG neurons and mast cells) for 30 min in the dark at 37°C in CIB just prior to imaging. With Fura 2-AM, emission at 510 nm was monitored from excitation at both 340 nm and 380 nm. With Fluo 4-AM, emission at 520 nm was monitored from excitation at 488 nm. Cells were identified as responding if the intracellular [Ca^2+] rose by either 50% compared to baseline or 50% compared to the [Ca^2+]i change assayed during addition of 50 mM KCl (neurons only). Damaged, detached, high-baseline, and motion-activated cells were excluded from analysis.
In initial screens, HEK293 cells stably expressing the murine G-protein alpha-subunit Gα15, a unique Gα protein that non-selectively couples a large variety of GPCRs to phospholipase C ^30, were plated on poly-D-lysine-coated coverslips and transiently transfected with constructs encoding the MRGRPR of interest. 12–24 hr later, cells were loaded with the Fura 2-AM. Unless otherwise specified, compounds were perfused into the imaging chamber for approximately thirty seconds after a baseline period was established. Response was then monitored at 5 s intervals for an additional 60 s.
HEK293 cells stably expressing either MRGPRA1, MRGPRX4, and MRGRPC11 were seeded in poly-D-lysine-coated 96-well plates at 10,000 cells/well. Cells were loaded with Fura 2–AM, washed twice, and maintained in CIB. Haem metabolites were freshly dissolved in DMSO in dim light and then diluted into a buffer comprised of 20 mM Tris and 150 mM NaCl at pH 8.8. Potential changes in pH were evaluated prior to each experiment. EC50 values were determined from dose-responses performed in triplicate, repeated 2–4 times. To determine potential antagonism by QWF against bilirubin, cells were treated with varying doses of QWF for 1 min in CIB prior to application of agonist.
HEK293 stable cell lines expressing GFP-tagged MRGPRA3, MRGPRC11, MRGPRD, MRGPRX1, and MRGPRX2 were generated in previously described reports ([Liu et al., 2009]; [Liu et al., 2012]; [McNeil et al., 2015]). Briefly, plasmids containing the receptor of interest were transfected into HEK cells using Lipofectamine 3000. After 3 days, cells were then selected using 0.5 mg/mL G418. After 3 weeks, monoclonal colonies were established and each the highest expressing clones were identified. For this study, Mrgpra1 and MRGPRX4 were inserted into pEGFP-N1 and transfected into HEK293 cells. MRGPR-positive cells were selected using 0.5 mg/mL G418 for three weeks, after which GFP-positive cells were sorted by FACS and monoclonally expanded. Two lines expressing similar levels of MRGPRA1 and MRGPRX4, as measured by GFP fluorescence, were selected for study.

lysophosphatidic acid [LPA, reference compound]
Scratching in WT versus Mrgpr-cluster KO animals (mice): equivalent degrees of scratching in WT and Mrgpr-cluster KO animals

C[C@H](CCC(=O)O)[C@H]1CC[C@H]2[C@@H]3CC[C@@H]4C[C@H](O)CC[C@]4(C)[C@H]3C[C@H](O)[C@]12C [deoxycholic acid, reference compound]
Scratching in WT versus Mrgpr-cluster KO animals (mice): equivalent degrees of scratching in WT and Mrgpr-cluster KO animals

N.N.N.N.N.N.N.N.N.N.N.N.N.N.[Cl-].[Cl-].[Cl-].[Cl-].[Cl-].[Cl-].[O-2].[O-2].[Ru+3].[Ru+3].[Ru+4] [ruthenium red, reference compound]
Effect on activation of sensory neurons by bilirubin (DRG neurons; 10 µM ruthenium red, 50 µM bilirubin): prevented bilirubin from activating sensory neurons | Percent activated neurons by 50 µM bilirubin (DRG neurons; WT neurons incubated with 10 µM ruthenium red (Fig 4G)): 0.73%

BAM8-22 [reference compound]
microscale thermophoresis response (binding isotherm), mean (MRGPRC11 [1]; [Ligand] 4.88e-8 M): 0.2221 | microscale thermophoresis response (binding isotherm), mean (MRGPRC11 [1]; [Ligand] 9.77e-8 M): 0.7996 | microscale thermophoresis response (binding isotherm), mean (MRGPRC11 [1]; [Ligand] 1.953e-7 M): 0.1618 | microscale thermophoresis response (binding isotherm), mean (MRGPRC11 [1]; [Ligand] 3.906e-7 M): -0.3098 | microscale thermophoresis response (binding isotherm), mean (MRGPRC11 [1]; [Ligand] 7.813e-7 M): -0.7916 | microscale thermophoresis response (binding isotherm), mean (MRGPRC11 [1]; [Ligand] 1.5625e-6 M): -0.6624 | microscale thermophoresis response (binding isotherm), mean (MRGPRC11 [1]; [Ligand] 3.125e-6 M): -0.9001 | microscale thermophoresis response (binding isotherm), mean (MRGPRC11 [1]; [Ligand] 6.25e-6 M): -0.5948 | microscale thermophoresis response (binding isotherm), mean (MRGPRC11 [1]; [Ligand] 1.25e-5 M): -2.488 | microscale thermophoresis response (binding isotherm), mean (MRGPRC11 [1]; [Ligand] 2.5e-5 M): -2.079 | microscale thermophoresis response (binding isotherm), mean (MRGPRC11 [1]; [Ligand] 5e-5 M): -2.779 | microscale thermophoresis response (binding isotherm), mean (MRGPRC11 [1]; [Ligand] 0.0001 M): -3.797 | Ca2+ response (concentration-Ca2+ response curve), replicate values (MRGPRC11 [2]; [Ligand] 1.95313e-7 M): 1.675 (2×) and 1.799 | Ca2+ response (concentration-Ca2+ response curve), replicate values (MRGPRC11 [2]; [Ligand] 3.90625e-7 M): 1.633 and 1.596 and 1.826 | Ca2+ response (concentration-Ca2+ response curve), replicate values (MRGPRC11 [2]; [Ligand] 7.8125e-7 M): 1.6619 and 1.688 and 1.837 | Ca2+ response (concentration-Ca2+ response curve), replicate values (MRGPRC11 [2]; [Ligand] 1.5625e-6 M): 1.91 and 1.851 and 1.839 | Ca2+ response (concentration-Ca2+ response curve), replicate values (MRGPRC11 [2]; [Ligand] 3.125e-6 M): 2.508 and 1.957 and 1.844 | Ca2+ response (concentration-Ca2+ response curve), replicate values (MRGPRC11 [2]; [Ligand] 6.25e-6 M): 2.578 and 3.436 and 2.313 | Ca2+ response (concentration-Ca2+ response curve), replicate values (MRGPRC11 [2]; [Ligand] 1.25e-5 M): 4.631 and 2.839 and 3.888 | Ca2+ response (concentration-Ca2+ response curve), replicate values (MRGPRC11 [2]; [Ligand] 2.5e-5 M): 3.332 and 3.664 and 3.933

Source: paper PMC6368403, “Identification of a bilirubin receptor that may mediate a component of cholestatic itch” (eLife, 2019)
